Converted amounts (≈) assume the structure as drawn.
What was measured:
C. albicans DSM10697 = assay: MIC assay; type: cell-based, Candida albicans; conditions: two-fold serial dilutions in liquid media, n = 2–3
M. smegmatis ATCC700084 = assay: MIC assay (REMA); type: cell-based, Mycobacterium smegmatis; conditions: n = 2–3
S. aureus ATCC6538P = assay: MIC assay; type: cell-based, Staphylococcus aureus; conditions: two-fold serial dilutions in liquid media, n = 2–3
P. aeruginosa ATCC9027 = assay: MIC assay; type: cell-based, Pseudomonas aeruginosa; conditions: two-fold serial dilutions in liquid media, n = 2–3
B. subtilis ATCC6633 = assay: MIC assay; type: cell-based, Bacillus subtilis; conditions: two-fold serial dilutions in liquid media, n = 2–3
E. coli ATCC8739 = assay: MIC assay; type: cell-based, Escherichia coli; conditions: two-fold serial dilutions in liquid media, n = 2–3
[1] = Mycolicibacterium smegmatis, ATCC700084, REMA microdilution
[2] = Staphylococcus aureus, ATCC6538P
[3] = Pseudomonas aeruginosa, ATCC9027

Structure (SMILES)	MIC (C. albicans DSM10697; Candida albicans, DSM10697)	MIC (M. smegmatis ATCC700084; REMA microdilution)	MIC (S. aureus ATCC6538P)	MIC (P. aeruginosa ATCC9027)	MIC (B. subtilis ATCC6633)	MIC (C. albicans DSM10697)	MIC (E. coli ATCC8739)	MIC (M. smegmatis ATCC700084; [1])	MIC (S. aureus ATCC6538P; [2])	MIC (P. aeruginosa ATCC9027; [3])	MIC (B. subtilis ATCC6633; Bacillus subtilis, ATCC6633)	MIC (E. coli ATCC8739; Escherichia coli, ATCC8739)	melting point
C[C@@H]1[C@H](O)[C@@H](C)/C=C/C=C/C=C/C=C/C=C/C=C/C=C/[C@H](O[C@@H]2O[C@H](C)[C@@H](O)[C@H](N)[C@@H]2O)C[C@@H]2O[C@](O)(C[C@@H](O)C[C@@H](O)[C@H](O)CC[C@@H](O)C[C@@H](O)CC(=O)O[C@H]1C)C[C@H](O)[C@H]2C(=O)O [Amphotericin B, reference compound]	0.62 µM (≈ 0.573 µg/mL)												
COc1ccccc1C=C1Oc2ccc(NC(C)=O)cc2C1=O [Compound 4]		>100 µM	100 µM (≈ 30.9 µg/mL)	>100 µM	50 µM (≈ 15.5 µg/mL)	>100 µM	>100 µM						
COc1cccc(/C=C2\Oc3ccc(NC(C)=O)cc3C2=O)c1 [Compound 5, (Z)-N-(2-(3-methoxybenzylidene)-3-oxo-2,3-dihydrobenzofuran-5-yl)acetamide]	> 100 µM							100 µM (≈ 30.9 µg/mL)	100 µM (≈ 30.9 µg/mL)	> 100 µM	> 100 µM	> 100 µM	204.2 °C
COc1ccc(/C=C2\Oc3ccc(NC(C)=O)cc3C2=O)cc1 [Compound 6, (Z)-N-(2-(4-methoxybenzylidene)-3-oxo-2,3-dihydrobenzofuran-5-yl)acetamide]	> 100 µM							> 100 µM	> 100 µM	> 100 µM	> 100 µM	> 100 µM	252 °C
COc1ccccc1/C=C1\Oc2ccc(N)cc2C1=O [Compound 7, (Z)-5-amino-2-(2-methoxybenzylidene)benzofuran-3(2H)-one]	> 100 µM							> 100 µM	> 100 µM	> 100 µM	> 100 µM	> 100 µM	189.3 °C
COc1cccc(/C=C2\Oc3ccc(N)cc3C2=O)c1 [Compound 8, (Z)-5-amino-2-(3-methoxybenzylidene)benzofuran-3(2H)-one]	> 100 µM							> 100 µM	> 100 µM	> 100 µM	> 100 µM	> 100 µM	
COc1ccc(/C=C2\Oc3ccc(N)cc3C2=O)cc1 [Compound 9, (Z)-5-amino-2-(4-methoxybenzylidene)benzofuran-3(2H)-one]	> 100 µM							> 100 µM	> 100 µM	> 100 µM	> 100 µM	> 100 µM	
CC(=O)Nc1ccc2c(c1)C(=O)/C(=C/c1ccc(OCc3ccccc3)cc1)O2 [Compound 11, (Z)-N-(2-(4-(benzyloxy)benzylidene)-3-oxo-2,3-dihydrobenzofuran-5-yl)acetamide]	> 100 µM							> 100 µM	> 100 µM	> 100 µM	> 100 µM	> 100 µM	212.8 °C
Nc1ccc2c(c1)C(=O)/C(=C/c1ccc(OCc3ccccc3)cc1)O2 [Compound 13, (Z)-5-amino-2-(4-(benzyloxy)benzylidene)benzofuran-3(2H)-one]	> 100 µM							> 100 µM	> 100 µM	> 100 µM	100 µM (≈ 34.3 µg/mL)	> 100 µM	141.6 °C
CC(=O)Nc1ccc2c(c1)C(=O)/C(=C/c1cccc(Oc3ccccc3)c1)O2 [Compound 14, (Z)-N-(3-oxo-2-(3-phenoxybenzylidene)-2,3-dihydrobenzofuran-5-yl)acetamide]	> 100 µM							> 100 µM	> 100 µM	> 100 µM	> 100 µM	> 100 µM	196.4 °C
Nc1ccc2c(c1)C(=O)/C(=C/c1ccc(Oc3ccccc3)cc1)O2 [Compound 17, (Z)-5-amino-2-(4-phenoxybenzylidene)benzofuran-3(2H)-one]	> 100 µM							> 100 µM	> 100 µM	> 100 µM	> 100 µM	> 100 µM	170.6 °C
CC(C)Oc1ccc(/C=C2\Oc3ccc(N)cc3C2=O)cc1 [Compound 23, (Z)-5-amino-2-(4-isopropoxybenzylidene)benzofuran-3(2H)-one]	> 100 µM							> 100 µM	> 100 µM	> 100 µM	> 100 µM	> 100 µM	> 350 °C
CC(=O)Nc1ccc2c(c1)C(=O)/C(=C/c1ccccc1F)O2 [Compound 24, (Z)-N-(2-(2-fluorobenzylidene)-3-oxo-2,3-dihydrobenzofuran-5-yl)acetamide]	> 100 µM							> 100 µM	> 100 µM	> 100 µM	> 100 µM	> 100 µM	226 °C
CC(=O)Nc1ccc2c(c1)C(=O)/C(=C/c1cccc(F)c1)O2 [Compound 25, (Z)-N-(2-(3-fluorobenzylidene)-3-oxo-2,3-dihydrobenzofuran-5-yl)acetamide]	> 100 µM							100 µM (≈ 29.7 µg/mL)	> 100 µM	> 100 µM	50 µM (≈ 14.9 µg/mL)	> 100 µM	243.6 °C
Nc1ccc2c(c1)C(=O)/C(=C/c1ccccc1F)O2 [Compound 26, (Z)-5-amino-2-(2-fluorobenzylidene)benzofuran-3(2H)-one]	> 100 µM							> 100 µM	> 100 µM	> 100 µM	50 µM (≈ 12.8 µg/mL)	> 100 µM	
Nc1ccc2c(c1)C(=O)/C(=C/c1cccc(F)c1)O2 [Compound 27, (Z)-5-amino-2-(3-fluorobenzylidene)benzofuran-3(2H)-one]	> 100 µM							> 100 µM	> 100 µM	> 100 µM	> 100 µM	> 100 µM	
Nc1ccc2c(c1)C(=O)/C(=C/c1ccc(F)cc1)O2 [Compound 28, (Z)-5-amino-2-(4-fluorobenzylidene)benzofuran-3(2H)-one]	> 100 µM							> 100 µM	> 100 µM	> 100 µM	> 100 µM	> 100 µM	164.4 °C
CC(=O)Nc1ccc2c(c1)C(=O)/C(=C/c1cccc(C(F)(F)F)c1)O2 [Compound 29, (Z)-N-(3-oxo-2-(3-(trifluoromethyl)benzylidene)-2,3-dihydrobenzofuran-5-yl)acetamide]	> 100 µM							> 100 µM	> 100 µM	> 100 µM	> 100 µM	> 100 µM	252.1 °C
CC(=O)Nc1ccc2c(c1)C(=O)/C(=C/c1ccc(C(=O)O)cc1)O2 [Compound 31, (Z)-4-((5-acetamido-3-oxobenzofuran-2(3H)-ylidene)methyl)benzoic acid]	> 100 µM							100 µM (≈ 32.3 µg/mL)	100 µM (≈ 32.3 µg/mL)	> 100 µM	50 µM (≈ 16.2 µg/mL)	> 100 µM	
CC(=O)Nc1ccc2c(c1)C(=O)/C(=C/c1cccc(O)c1)O2 [Compound 32, (Z)-N-(2-(3-hydroxybenzylidene)-3-oxo-2,3-dihydrobenzofuran-5-yl)acetamide]		>100 µM	>100 µM	>100 µM	>100 µM	>100 µM	>100 µM						
Nc1ccc2c(c1)C(=O)/C(=C/c1cccc(O)c1)O2 [Compound 33, (Z)-5-amino-2-(3-hydroxybenzylidene)benzofuran-3(2H)-one]		>100 µM	>100 µM	>100 µM	>100 µM	>100 µM	>100 µM						
CO/N=C1\CN(c2nc3c(cc2F)c(=O)c(C(=O)O)cn3C2CC2)CC1CN (stereo not drawn) [Gemifloxacin, reference compound]								2 µM (≈ 0.779 µg/mL)	0.06 µM (≈ 0.0234 µg/mL)	0.25 µM (≈ 0.0973 µg/mL)	0.03 µM (≈ 0.0117 µg/mL)	0.06 µM (≈ 0.0234 µg/mL)	
